Laboratory results as given in PubChem BioAssay (NCI).
Where “and” joins values, the source holds several entries; their conditions need not be identical. Equal entries are not always repeated.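 Where inhibition never reached the appropriate level, the endpoint shown equals the highest concentration tested. Otherwise, values were interpolated linearly from a five-concentration, 48-hour dose response in 96-well plates. Abbreviation: GI50, concentration required for 50% inhibition of growth. TGI: total growth inhibition.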

Experiments:
Assay in all cases: NCI tumour cell line growth inhibition, 48 h
HOP-62 NSCLC = test system: HOP-62 NSCLC
K-562 leukemia = test system: K-562 leukemia
COLO 205 colon = test system: COLO 205 colon
T-47D breast = test system: T-47D breast
PC-3 prostate = test system: PC-3 prostate
HCT-116 colon = test system: HCT-116 colon
NCI-H23 lung = test system: NCI-H23 lung
SK-MEL-5 melanoma = test system: SK-MEL-5 melanoma
OVCAR-3 ovarian = test system: OVCAR-3 ovarian
HL-60(TB) leukemia = test system: HL-60(TB) leukemia

Compound | GI50 (HOP-62 NSCLC) | TGI (HOP-62 NSCLC) | GI50 (K-562 leukemia) | TGI (K-562 leukemia) | GI50 (COLO 205 colon) | TGI (COLO 205 colon) [µM] | GI50 (T-47D breast) | TGI (T-47D breast) | GI50 (PC-3 prostate) | TGI (PC-3 prostate) | GI50 (HCT-116 colon) | TGI (HCT-116 colon) | GI50 (NCI-H23 lung) | TGI (NCI-H23 lung) | GI50 (SK-MEL-5 melanoma) | TGI (SK-MEL-5 melanoma) | GI50 (OVCAR-3 ovarian) | TGI (OVCAR-3 ovarian) [µM] | GI50 (HL-60(TB) leukemia) | TGI (HL-60(TB) leukemia)
CN1CCN(C(=O)OCc2nc3c(N4CCOCC4)nc(Cl)nc3n2C)CC1 | 1.53 µM | 4.92 µM | 1.21 µM | 15.7 µM | 1.44 µM | 4.1 | 2.01 µM | 4.99 µM | 1.33 µM | 2.92 µM | 0.343 µM | 1.62 µM | 1.55 µM | 3.3 µM | 1.55 µM | 2.89 µM | 0.547 µM | 2.15 | 0.65 µM | 3.28 µM
C=C1C(=O)O[C@H]2[C@H]1CC/C(Cn1cc(-c3ccc(OC)cc3)nn1)=C\CC[C@@]1(C)O[C@@H]21 | 10.5 µM | 23.1 µM | 1.3 µM | 6.87 µM | 0.504 µM | 1.95 | 1.43 µM | 3.08 µM | 9.35 µM | 22.2 µM | 0.488 µM | 1.79 µM | 2.06 µM | 4.58 µM | 2.1 µM | 4.69 µM | 0.569 µM | 1.8 | 1.17 µM | 3.86 µM
COC(=O)[C@]12CC[C@@H](C)[C@H](C)[C@@H]1C1=CC[C@@H]3[C@@]4(C)C/C(=N\O)[C@H](O)[C@@]5(C)COC(=C45)C[C@@]3(C)[C@]1(C)CC2 | 12.3 µM | 26.3 µM | 3.77 µM | 14.9 µM | 7.75 µM | 21.8 | 9.3 µM | 25.7 µM | 2.34 µM | 6.51 µM | 2.42 µM | 7.11 µM | 6.89 µM | 22.3 µM | 13.1 µM | 25.8 µM | 5.47 µM | 18.2 | 3.64 µM | 13.2 µM
CC(C)c1nc(CN(C)C(=O)N[C@H](C(=O)N[C@@H](Cc2ccccc2)C[C@H](O)[C@H](Cc2ccccc2)NC(=O)OCc2cncs2)C(C)C)cs1 | 19.6 µM | 38.2 µM | 26.6 µM | 92.1 µM | 17.6 µM | 38.2 | 21.7 µM | 73 µM | 20.8 µM | 79.2 µM | 19.9 µM | 50.1 µM | 42.6 µM | > 100 µM | 17.1 µM | 33.5 µM | 21.5 µM | > 56.5 | 12.2 µM | 36.9 µM
CC[C@@H]1C(=O)N(C)c2cnc(Nc3ccc(C(=O)NC4CCN(C)CC4)cc3OC)nc2N1C1CCCC1 | 0.00533 µM and < 0.01 µM | > 10 µM and 6.35 µM | 0.00367 µM and < 0.01 µM | > 10 µM and 3.54 µM | 0.00326 µM and < 0.01 µM | 0.111 | 0.0718 µM and 0.157 µM | > 10 µM and 6.27 µM | 0.00454 µM and < 0.01 µM | > 10 µM and 19.1 µM | 0.00366 µM and < 0.01 µM | > 4.05 µM and 1.45 µM | 0.00443 µM and < 0.01 µM | > 5.03 µM and 6.4 µM | 0.00861 µM and 0.0123 µM | 0.205 µM and 0.274 µM | 0.00353 µM and < 0.01 µM |  | 0.00231 µM and < 0.01 µM | 0.00631 µM and 0.0445 µM
CC(C)(CC(=O)Nc1ccccc1)C(=O)O |  | > 100 µM |  | > 100 µM |  | > 100 |  | > 100 µM |  | > 100 µM |  | > 100 µM |  | > 100 µM |  | > 100 µM |  | > 100 |  | > 100 µM
Cc1ccc2c(c1)[n+]([O-])c(N)n[n+]2[O-] |  | > 100 µM |  | > 100 µM |  | > 100 |  | > 100 µM |  | > 100 µM |  | > 100 µM |  | > 100 µM |  | > 100 µM |  | > 100 |  | > 100 µM
CC[C@@H]1CN(C)[C@H]2Cc3c([nH]c4ccccc34)C(=O)C[C@H]1C2C(=O)OC (some centres not stated) |  | > 100 µM |  | > 100 µM |  | > 100 |  | > 100 µM |  | > 100 µM |  | > 100 µM |  | > 100 µM |  | > 100 µM |  | > 100 |  | > 100 µM
FC(F)(F)c1cccc(Nc2nccc(-c3cnn4nc(-c5ccccc5)ccc34)n2)c1 | 8.1 µM | > 20.7 µM | > 16.3 µM | > 25 µM | 11.8 µM | > 25 | 8.33 µM | > 25 µM | 8.48 µM | > 20.8 µM | 5.92 µM | 14.8 µM | 9.13 µM | > 25 µM | 14.7 µM | > 25 µM | 5.24 µM | 11 | > 25 µM | > 25 µM
C=CC(=O)N1CC2(CCN(c3nc(OC4CCN(CCCOC)CC4)nc4c(OCC(F)(F)F)c(-c5c(C)ccc6[nH]ncc56)c(C5CC5)cc34)CC2)C1 |  | 19.6 µM | 2.07 µM | 5.84 µM | 1.97 µM | 3.73 | 2.71 µM | 9.46 µM | 2.61 µM | 9.86 µM | 1.95 µM | 4.17 µM |  | 1.95 µM | 2.14 µM | 4.93 µM | 2.37 µM | 5.28 | 1.76 µM | 4.57 µM
Oc1ccc(CN2CCC(N3CCCCC3)CC2)c2cccnc12 | 6.25 µM | > 100 µM | 2.23 µM | > 100 µM | 48.4 µM | > 100 | 23.6 µM | > 100 µM | 7.15 µM | > 100 µM | 4.49 µM | > 100 µM | 6.05 µM | > 100 µM | 15.8 µM | 75.9 µM | 27.5 µM | > 100 | 6.86 µM | 46.7 µM
COc1ccc(-c2cc(=O)c3ccc(O)cc3o2)cc1OC |  | > 100 µM |  | > 100 µM |  | > 100 |  | > 100 µM |  | > 100 µM |  | > 100 µM |  | > 100 µM |  | 41.8 µM |  | > 100 |  | > 100 µM
CCN(CC)c1ccc(/C=C/c2ccc3cc(C)ccc3[n+]2CC)cc1 | 0.158 µM | 6.21 µM | 0.036 µM | 13.5 µM | 0.124 µM | 0.516 | 0.0182 µM | 1.41 µM | 0.0664 µM | 6.17 µM | 0.033 µM | 2.57 µM | 0.0303 µM | 12.5 µM | 0.0493 µM | 0.261 µM | 0.075 µM | 0.995 | 0.0297 µM | 0.429 µM
CC(=O)OCCN1c2ccccc2Sc2cnccc21 |  | > 10 µM |  | > 10 µM |  | > 10 |  | > 10 µM |  | > 10 µM |  | > 10 µM |  | > 10 µM |  | > 10 µM |  | > 10 |  | > 10 µM
